In patent US20020120001A1, “Compositions containing tryptamines, cartenoids and tocotrienols and having synergistic antioxidant effect” (Ashni Naturaceuticals, Inc., priority 2000, published 2002):
Converted amounts (≈) assume the structure as drawn. Values belong to the molecule of their own block, whether it stands above or below them.

Test: peroxy radical scavenging activity (BODIPY 581/591 C11 fluorescence with AMVN radical generator, microplate; Median Effect/CalcuSyn analysis)
[1] = Example 2, concentration of the named component in the 1:1 melatonin and natural astaxanthin mixture
[2] = Example 4, component of the melatonin and mixed tocotrienols mixture

Experimental: Measurement of peroxy radical scavenging activity of the individual compounds and combinations was performed essentially as described by Naguib (Analytical Biochemistry(1998) 265:290-298) with modifications to allow the assay to be performed on a microplate. The fatty acid indicator 4,4difluoro-5-(4-phenuyl-1,3-butadienyl)-4-bora-3a-4a-diaza-s-indacene-3-undecanate (BODIPY 581/591 C11) was purchased from Molecular Probes (Eugene, Oreg.). As a peroxy radical generator, 2,2′-azobis-2,4-dimethyl valeronitrile (AMVN) was used and obtained from WAKO Chemicals (Richmond, Va.). All standards were of the highest purity commercially available. Additionally, the solvents were of HPLC grade.
Fluorescence measurements were performed using a Packard FluoroCount microplate fluorometer equipped with a temperature-controlled plate holder. All measurements were preformed in a 96-well polypropylene plate with stirring.
Reactions in octane: butyronitrile (9:1, v/v) were carried out at 30° C. All fluorescence measurements were recorded every 15 minutes for 1 hour at excitation wavelengths of 570 nm, with emission at 620 nm. The net protection (area under the curve, AUC) by the antioxidant sample was calculated using the trapezoid method.
The final reaction mixture (200 μl) for the assay contained 0.5 μg/mL BODIPY 581/591C11 and 0.26 M AMVN in octane:butyronitrile (9:1, v/v). Stock solutions of the test samples were made up in chloroform and 6 μL was added to the reaction mixture to achieve the stated concentrations. The reaction was initiated by the addition of the AMVN fluorometric readings were then recorded every 15 minutes for one hour.
Synergy between melatonin and astaxanthin was assessed using CalcuSyn (BIOSOFT, biosoft.com). This statistical package performs multiple drug dose-effect calculations using the Median Effect methods described by T-C Chou and P. Talaly (Trends Pharmacol. Sci. 4:450-454), hereby incorporated by reference.
Cm is determined from the x-intercept of the median-effect plot. The fraction affected by the concentration of the test material is fa and the fraction unaffected by the concentration is fu (fu=1−fa). The exponent m is the parameter signifying the sigmoidicity or shape of the dose-effect curve. It is estimated by the slope of the median-effect plot.
The median-effect plot is a plot of x=log(C) vs y=log(fa/fu) and is based on the logarithmic form of Chou's median-effect equation. The goodness of fit for the data to the median-effect equation is represented by the linear correlation coefficient r of the median-effect plot.
Synergy of test components was quantified using the combination index (CI) parameter. The CI of Chou-Talaly is based on the multiple drug-effect and is derived from enzyme kinetic models (Chou, T.-C. and Talalay, P. (1977) A simple generalized equation for the analysis of multiple inhibitions of Michaelis-Menten kinetic systems. J. Biol. Chem. 252:6438-6442). The equation determines only the additive effect rather than synergism or antagonism. However, we define synergism as a more than the expected additive effect, and antagonism as a less than the expected additive effect as proposed by Cho and Talalay in 1983 (Trends Pharmacol. Sci. (1983) 4:450-454).
Dose-response curves were described with each test article separately and then in a two-way combination. For the individual dose-response curves, concentrations of melatonin included 100, 500 and 1000 μM, while the concentrations of astaxanthin were 49, 98, 490, and 980 μM.

- IC50 (Example 5, test material alone): 148 (94-232) μg test/mL
Structure (SMILES): CC1=C(/C=C/C(C)=C/C=C/C(C)=C/C=C/C=C(C)/C=C/C=C(C)/C=C/C2=C(C)C(=O)[C@@H](O)CC2(C)C)C(C)(C)C[C@H](O)C1=O [Astaxanthin alone, 3, 3′-dihydroxy-β,β-carotene-4, 4′-dieto-β-carotene]
- IC75 (Example 1, listed as of test material alone): 185 (107-319) μM

- IC50 (Example 3, test material alone): 61 µM
Structure (SMILES): CC1=C[C@H](O)CC(C)(C)[C@H]1/C=C/C(C)=C/C=C/C(C)=C/C=C/C=C(C)/C=C/C=C(C)/C=C/C1=C(C)C[C@@H](O)CC1(C)C [Lutein alone, lutein]

- IC50 (Example 1, test material alone, 95% confidence interval in parentheses): 284 µM
- IC50 [1]: 38 µg/mL
- IC90 [1]: 77 µg/mL (≈ 331 µM)
- IC50 (Example 2, test material alone): 120 (105-137) μg/mL
- IC50 (Example 3, test material alone): 283 µM
- IC50 (Example 4, test material alone): 53 (25-112) μg test/mL
- IC50 (Example 5, test material alone): 53 (25-112) μg test/mL
Structure (SMILES): COc1ccc2[nH]cc(CCNC(C)=O)c2c1 [Melatonin alone, N-acetyl-5-methoxytryptamine]
- increase in antioxidant potency (Example 2, component in 1:1 melatonin and natural astaxanthin combination versus alone): 3.2 fold
- IC75 [1]: 54 µg/mL (≈ 232 µM)
- increase in antioxidant potency (Example 4, component in 1:1 melatonin and mixed tocotrienols combination versus alone): 3.1 fold
- concentration for 50 percent inhibition of peroxy radical formation [2]: 17 µg/mL
- concentration for 75 percent inhibition of peroxy radical formation [2]: 21 µg/mL
- concentration for 90 percent inhibition of peroxy radical formation [2]: 26 µg/mL

- IC50 (Example 3, test material alone): 366 µM
Structure (SMILES): CC1=C(/C=C/C(C)=C/C=C/C(C)=C/C=C/C=C(C)/C=C/C=C(C)/C=C/C2=C(C)CCCC2(C)C)C(C)(C)CCC1 [β-Carotene alone, β-carotene]
